Publication PMC10861593, “Kisspeptin-10 binding to Gpr54 in osteoclasts prevents bone loss by activating Dusp18-mediated dephosphorylation of Src” (Nature Communications, 2024)
Entries after “also recorded” stand apart in the source; their conditions may differ.

Key:
[1] = tested on: osteoblast differentiation; settings: in vitro, KP-10 5 and 50 μM; ref 46 (Son et al.); cited from earlier work
Text: Typically, GPCR activation with increasing of ligand concentration generates different signalings and phenotypes. […] Furthermore, we foun ...

[2] = tested on: OVX mice; experiment: OVX-induced bone loss model (and sham-operated mice); type: in vivo, mouse; settings: in vivo, OVX-induced bone loss model
Text: Fig. 7 Kp-10 ameliorated OVX-induced bone loss. a, c Representative micro-CT images of femoral trabecular bone (a) and cortical bone (c). Female C57 mice treated with vehicle (Sham) or 50 nmol/kg (DSS)*6-Kp-10, ovariectomized mice (OVX) treated with vehicle or 50nmol/kg (DSS)*6-Kp-10 twice one week by intraperitoneal injection (n = 6 per group). Scale bar, 500 µm. b, d Parameter analysis of femurs from the mice above. BMD bone mineral density, BV/TV bone volume as a fraction of total bone volume, Tb.Th trabecular thickness, Tb.N trabecular number, Tb.Sp trabecular separation. e Representative TRAP staining images of femurs from Fig. 7a. f Histomorphometry analysis of the femurs from Fig. 7a. Oc.S/BS osteoclast surface per bone surface, N.Oc/B.Pm osteoclast bone surface density, ES/BS eroded surface per bone surface. Data represent means ± SEM. P values were determined by one-way ANOVA analysis (b, d, f). Representative results were obtained from at least three independent experiments. Source data are provided as a Source Data file.
3D micro-CT analyses were performed as previously described. We scanned the femur using in vitro X-ray microtomography (Skyscan 1272, Bruker micro CT) at a pixel size of 9 µm, and analyzed the results according to the manufacturer’s instructions. Region-of-interest (ROI) was defined from 10 to 110 image slices, where the growth plate slice was defined as 0 mm. The contrast was defined from 68–255; 3D analysis, BMD, and 3D models were analyzed using CTAn software (Bruker micro CT). 3D models were adjusted in CT Vox software (Bruker micro CT).
Bone tissue was removed of excess tissues and fixed with 4% formalin, decalcified with 0.5 M EDTA for 10–14 days, embedded with paraffin, sectioned, and stained using the TRAP staining kit (Sigma-Aldrich, 387A-1KT). The third lumbar spine vertebrae (L3) were fixed with 4% formalin, sectioned, and subjected to Von Kossa staining as described previously[60],[61]. For double calcian labeling assay, 4−5 week-old mice were administrated calcian (30 μg/mL) through intraperitoneal injection for the first time and the second time after 10 days. The third lumbar spine vertebrae (L3) were fixed with 4% formalin, sectioned, and subjected to Goldner’s Masson trichrome staining, or acquisition of fluorescence images. Histomorphometric measurements were made using the OsteoMeasure Analysis System (Osteometrics, Atlanta, GA, USA) according to standard criteria.
For animal studies in vivo, mice were randomized for weight. For the OVX-induced bone loss model, 2-month-old female C57BL/6 mice were sham-operated (sham) or ovariectomized (OVX) and randomly divided into indicated groups. Vehicle, Kp-10 or (DSS)*6-Kp-10 was injected into the tail vein twice per week. After two months of treatment, the femurs and the L3 lumbrae were isolated for micro-CT or histomorphometric analysis. 3D micro-CT analyses were performed according to a standard protocol. BMD and bone volume were analyzed by CT-analysis software (CTAn, Bruker micro CT, Kontich, Belgium) and images were reconstituted by CT-volume software (CTvol, skyscan, CTAn, Bruker micro CT, Kontich, Belgium).
Supplementary Fig. 16 a Representative image of Von Kossa staining of sham-operated female C57 mice treated with vehicle (Sham, n=4), ovariectomized mice (OVX, n=3), and OVX mice treatment with 1 nmol/kg Kp-10 (n=6),10 nmol/kg Kp-10 (n=6),1 nmol/kg (DSS)*6-Kp-10 (n=5) or 10 nmol/kg (DSS)*6-Kp-10 (n=6) twice one week by intraperitoneal injection for two months. […]

[3] = tested on: Dusp18 / Gpr54 interaction; experiment: Co-IP: interaction of Dusp18 with Gpr54 in RAW264.7 cells; type: cell-based, mouse
Experimental: Beads were analyzed by phosphatase activity assay (a), mass spectrometry assay (b), IB analysis (c) and quantification of protein levels (d). e, f Protein co-localization was analyzed by IF staining in primary pre-osteoclast with 10 nM Kp-10 treatment for 20 min. […] Scale bar, 50 µm. g, h binding affinity was measured by SPR binding analysis. […] Data represent means ± SEM. P values were determined by one-way ANOVA analysis (a, d, j, l) or two-tailed Student’s t-test (f). Representative results were obtained from at least three independent experiments. Source data are provided as a Source Data file.
Whole-cell proteins were extracted using 1x RIPA buffer (25 mM Tris, pH7.5, 150 mM NaCl, 0.5% Sodium deoxycholate, 1% Triton-X-100) supplemented with protease inhibitors (Complete Mini, Roche) and phosphatase inhibitors (phosphatase inhibitor cocktail set I and II, Calbiochem). Immunoprecipitation and immunoblotting with indicated antibodies were performed as described in Supplementary Table 1. Image Jsoftware (V1.52) was used for quantification analysis. Uncropped and unprocessed blots are presented in the Supplementary Information file.

[4] = tested on: giant cell tumor of bone (GCT) cells; experiment: TRAP assay of osteoclast formation in human giant cell tumor of bone (GCT) cells; type: cell-based; settings: Kp-10 5–7 days
Experimental: BMMs (5 × 10^3 cells/well) were seeded into 96-well plates with a bone slice and incubated with M-CSF (10 ng/ml) and RANKL (50 ng/ml) with or without Kp-10, and the culture medium was changed every other day for 5–7 days. Osteoclasts were fixed and stained by phalloidin and DAPI. “Pits” on bone slice after osteoclast resorption were fixed with 4% Glutaraldehyde and stained with 1% toluidine blue, and pit depth was examined by laser-scanning confocal microscopy. For primary cultures of giant-cell tumor of bone (GCTB) cells, the use of all patient-derived tumor specimens was approved by the Institutional Review Board and the research ethics committee of Shanghai Changzheng Hospital, which appeared in the proceedings of the meeting of the Ethics Committee on 18 November 2014 (report number: 2014090). Informed consent obtained from all tissue donors was written. The GCTB cells were isolated from tumor samples derived from tumor resections in Shanghai Changzheng Hospital, 1 × 10^6 GCTB cells were seeded in a 24-well plate. Cells were stimulated with indicated doses of Kp-10 for 5–7 days. The medium was changed every 2 days. Osteoclasts were fixed and stained using the TRAP-staining kit (Sigma-Aldrich, 387A-1KT).

Substance: Kisspeptin-10 [Kp-10]
- osteoblast differentiation at 5 and 50 μM [1]: stimulated osteoblast differentiation in vitro
- bone loss / bone protection in vivo (summary statement) [2]: abrogated bone loss by suppressing osteoclast activity in vivo
- recruitment of Src and Dusp18 by Gpr54, 10 nM ([3]; 10 nM Kp-10, Co-IP and IF): more significantly recruited
- interaction of Dusp18 with Gpr54 ([3]; RAW264.7 cells, indicated dose of Kp-10 for 20 min): dose-dependently induced the interaction of Dusp18 with Gpr54
- osteoclast formation [4]: suppressed osteoclast formation; also recorded: dose-dependently suppressed
